We go through ten molecules from PMC9848287, “Novel thiazolone-benzenesulphonamide inhibitors of human and bacterial carbonic anhydrases” (Journal of Enzyme Inhibition and Medicinal Chemistry, 2023).

Assay in all cases: stopped-flow CO2 hydrase assay
One test deals with T1, StCA2 (Salmonella enterica, UniProt O30898).
T1 construct: gene mig-5; recombinant, obtained in-house
T1 sequence (O30898 41-246): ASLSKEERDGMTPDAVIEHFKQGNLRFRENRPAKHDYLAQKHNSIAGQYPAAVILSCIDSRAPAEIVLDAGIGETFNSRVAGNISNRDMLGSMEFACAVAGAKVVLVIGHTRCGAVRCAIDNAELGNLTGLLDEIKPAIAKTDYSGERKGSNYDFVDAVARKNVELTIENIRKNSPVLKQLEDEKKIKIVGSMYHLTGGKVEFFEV
The class given is biochemical. The note with it: CO2 hydration, […] TRIS pH […] Na2SO4, […] min preincubation at room temperature.

The target in a further test is T2, hCA I (Homo sapiens, UniProt P00915).
T2 construct: gene CA1; recombinant, obtained in-house
The class given is biochemical. An excerpt: stopped-flow CO2 hydrase assay on hCA I

Another test has as its target T3, hCA VII (Homo sapiens, UniProt P43166).
T3 construct: gene CA7; recombinant, obtained in-house
The class given is biochemical. An excerpt: stopped-flow CO2 hydrase assay on hCA VII

The target of another test is T4, hCA II (Homo sapiens, UniProt P00918).
T4 construct: gene CA2; recombinant, obtained in-house
It is filed as biochemical. An excerpt:
stopped-flow CO2 hydrase assay on hCA II

Another test concerns the target T5, StCA1.
T5 construct: recombinant, obtained in-house
The class given is biochemical, Salmonella enterica subsp. enterica serovar Typhimurium. The note with it: CO2 hydration, […] TRIS pH […] Na2SO4, […] min preincubation at room temperature.

The target in a further test is T6, MscCAβ (Mammaliicoccus sciuri, UniProt A0AAJ4SIE8).
T6 construct: gene OWO77_14055; recombinant, obtained in-house
T6 sequence (A0AAJ4SIE8 1-189): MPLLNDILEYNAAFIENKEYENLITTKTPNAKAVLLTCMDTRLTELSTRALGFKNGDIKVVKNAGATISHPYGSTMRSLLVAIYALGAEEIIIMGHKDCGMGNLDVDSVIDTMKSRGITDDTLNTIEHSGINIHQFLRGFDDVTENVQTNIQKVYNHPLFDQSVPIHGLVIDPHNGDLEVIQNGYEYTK
It is filed as biochemical. To be noted: CO2 hydration, […] TRIS pH […] Na2SO4, […] min preincubation at room temperature.

Structures are written as SMILES.

T2 sequence (P00915 2-261): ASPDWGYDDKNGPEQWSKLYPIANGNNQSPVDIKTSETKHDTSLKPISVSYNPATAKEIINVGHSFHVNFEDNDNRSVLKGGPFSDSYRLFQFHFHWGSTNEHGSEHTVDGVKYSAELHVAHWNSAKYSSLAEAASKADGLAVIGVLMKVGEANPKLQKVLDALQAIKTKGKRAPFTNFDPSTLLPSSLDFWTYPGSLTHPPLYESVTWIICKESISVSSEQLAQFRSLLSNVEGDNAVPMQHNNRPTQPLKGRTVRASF
T3 sequence (P43166 whole entry): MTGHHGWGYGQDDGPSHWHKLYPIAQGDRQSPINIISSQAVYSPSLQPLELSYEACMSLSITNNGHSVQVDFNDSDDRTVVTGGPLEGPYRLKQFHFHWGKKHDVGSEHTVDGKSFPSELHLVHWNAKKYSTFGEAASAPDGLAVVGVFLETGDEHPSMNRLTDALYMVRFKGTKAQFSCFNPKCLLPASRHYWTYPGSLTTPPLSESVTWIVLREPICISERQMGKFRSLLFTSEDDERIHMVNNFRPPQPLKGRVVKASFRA

For orientation: Ki means a dissociation constant, usually derived from enzyme kinetics or from competition with a known ligand. Low values mean higher affinity, high ones lower affinity. Consider `CC1SC(Nc2ccc(S(N)(=O)=O)cc2)=NC1=O` (racemic) [4b, 4-((5-Methyl-4-oxo-4,5-dihydrothiazol-2-yl)amino)benzenesulphonamide], for which the Ki at StCA2 worked out at 538 nM; on hCA I it was 31.5 nM; at hCA VII it was 0.9 nM; on hCA II, 4.3 nM; on StCA1 it was 89.9 nM; at MscCAβ, 481 nM.

Turning to `CCC1SC(Nc2ccc(S(N)(=O)=O)cc2)=NC1=O` (racemic) [4c, 4-((5-Ethyl-4-oxo-4,5-dihydrothiazol-2-yl)amino)benzenesulphonamide], the Ki was 481 nM at StCA2; 66.6 nM on hCA I; 1.2 nM on hCA VII; 3.8 nM on hCA II; 86.1 nM at StCA1; 411 nM at MscCAβ.

For the molecule `CCCC1SC(Nc2ccc(S(N)(=O)=O)cc2)=NC1=O` (racemic) [4d, 4-((4-Oxo-5-propyl-4,5-dihydrothiazol-2-yl)amino)benzenesulphonamide], the inhibition constant (Ki) was found to be 913 nM on StCA2; 70.7 nM on hCA I; 2 nM at hCA VII; 2.3 nM on hCA II; 83.3 nM on StCA1; 73.6 nM on MscCAβ.

Consider `CC(C)C1SC(Nc2ccc(S(N)(=O)=O)cc2)=NC1=O` (racemic) [4e, 4-((5-Isopropyl-4-oxo-4,5-dihydrothiazol-2-yl)amino)benzenesulphonamide], for which the Ki on StCA2 came out at 867 nM; on hCA I it was 85.4 nM; at hCA VII it was 7.5 nM; on hCA II, 7.3 nM; at StCA1, 81.1 nM; on MscCAβ it was 701 nM.

For the molecule `CCCCC1SC(Nc2ccc(S(N)(=O)=O)cc2)=NC1=O` (racemic) [4f, 4-((5-Butyl-4-oxo-4,5-dihydrothiazol-2-yl)amino)benzenesulphonamide], the Ki on StCA2 came out at 904 nM; at hCA I it was 75 nM; on hCA VII, 6.2 nM; on hCA II, 3.2 nM; at StCA1, 72.4 nM; at MscCAβ it was 2420 nM.

In the case of `CCCCCCC1SC(Nc2ccc(S(N)(=O)=O)cc2)=NC1=O` (racemic) [4g, 4-((5-Hexyl-4-oxo-4,5-dihydrothiazol-2-yl)amino)benzenesulphonamide], the Ki at StCA2 is 4880 nM; on hCA I it was 637 nM; on hCA VII, 14.6 nM; on hCA II, 13.7 nM; at StCA1, 83.6 nM; on MscCAβ it was 4030 nM.

For the molecule `NS(=O)(=O)c1ccc(NC2=NC(=O)C(c3ccccc3)S2)cc1` (racemic) [4h, 4-((4-Oxo-5-phenyl-4,5-dihydrothiazol-2-yl)amino)benzenesulphonamide], the Ki on StCA2 came out at 797 nM; at hCA I, 90.4 nM; on hCA VII it was 7.3 nM; at hCA II it was 1.3 nM; on StCA1, 163 nM; on MscCAβ, 1060 nM.

Consider `NS(=O)(=O)c1ccc(NC2=NC(=O)C(CCBr)S2)cc1` (racemic) [4i, 4-((5-(2-Bromoethyl)-4-oxo-4,5-dihydrothiazol-2-yl)amino)benzenesulphonamide], for which the Ki on StCA2 is 515 nM; at hCA I, 74.6 nM; at hCA VII, 2.1 nM; on hCA II, 2.2 nM; on StCA1 it was 69.2 nM; at MscCAβ it was 925 nM.

`NS(=O)(=O)c1ccc(NC2=NC(=O)C(F)S2)cc1` (racemic) [4j, 4-((5-Fluoro-4-oxo-4,5-dihydrothiazol-2-yl)amino)benzenesulphonamide]: the Ki at StCA2 was 956 nM; at hCA I, 138 nM; at hCA VII it was 1.9 nM; on hCA II, 3.7 nM; on StCA1, 90.9 nM; on MscCAβ it was 849 nM.

On to `NS(=O)(=O)c1ccc(NC2=NC(=O)CS2)cc1` [4a, 4-((4-Oxo-4,5-dihydrothiazol-2-yl)amino)benzenesulphonamide], for which the Ki stood at 275 nM at StCA2, 1.4 nM on hCA VII, 82.4 nM at StCA1 and 787 nM on MscCAβ.
